Experiments:
[1] = molecular target: T1, CDK12 protein level in CAL-120 breast cancer cells (Homo sapiens, UniProt Q9NYV4); assay: CDK12 protein level: Protein Simple (CDK12, CAL-120); format: cell-based; conditions: CAL-120 cells, 18 h with compound, CDK12/HSP90 peak area ratio vs vehicle, median, read-out: CDK12 protein level in CAL-120 breast ca cells, DC50-[mol/l] (median)
T1 construct: endogenous in cells; host or cells: CAL-120 human breast cancer cells (DSMZ ACC 459)
Description: CAL-120 human breast cancer cells (DSMZ ACC 459) were seeded at 300,000 cells/well in 6-well plates containing 2 mL of growth medium (DMEM, 10% FCS, glutamine) and incubated for 24 h at 37° C. in an humidified incubator. Test compounds were added at various concentrations, control wells received solvent (DMSO), and the plates were incubated for another 18 h at 37° C. Cells were washed 2 times with PBS and lysed in 75 microL lysis buffer (MSD-Puffer (MSD, #R60TX-2), +1% 505S+PhosSTOP (Roche #04906837001)+complete mini (Roche #04693159001)) by scraping. The lysates were pushed 2 times through Qiashedders followed by centrifugation at 14,000 rpm for 30-50 sec. The supernatant was stored at −20° C. Proteins were separated by applying 0.4 microgramms of protein lysate to Protein Simple 66-440 kDa (Protein Simple #SM-S002) size assay columns on a PEGGY SUE or SALLY SUE equipment according to the supplier's manual. CDK12 and HSP90 (loading control) were detected using anti-human CDK12 antibody (Cell Signaling Technologies (CST) #11793) at 1:25 dilution and anti-human HSP90 antibody (CST #4877) at 1:5,000 dilution. CDK12 and HSP90 peak areas were determined using Protein Simple Compass software. Ratio of CDK12/HSP90 peak areas were calculated for each sample, and […] values (degrading concentration to achieve 50% reduction relative to vehicle treated control) were determined by means of a 4 parameter fit.

[2] = molecular target: CDK12/CycK (Homo sapiens, UniProt Q9NYV4); assay: CDK12/CycK high ATP kinase assay (TR-FRET, 2 mM ATP); format: biochemical; conditions: 2 mM ATP (high ATP); median; read-out: CDK12/CyclinK, 2 mM ATP (high ATP), IC50-[mol/l] (median)
CDK12/CycK, sequence (Q9NYV4 with tags, fused parts or gaps): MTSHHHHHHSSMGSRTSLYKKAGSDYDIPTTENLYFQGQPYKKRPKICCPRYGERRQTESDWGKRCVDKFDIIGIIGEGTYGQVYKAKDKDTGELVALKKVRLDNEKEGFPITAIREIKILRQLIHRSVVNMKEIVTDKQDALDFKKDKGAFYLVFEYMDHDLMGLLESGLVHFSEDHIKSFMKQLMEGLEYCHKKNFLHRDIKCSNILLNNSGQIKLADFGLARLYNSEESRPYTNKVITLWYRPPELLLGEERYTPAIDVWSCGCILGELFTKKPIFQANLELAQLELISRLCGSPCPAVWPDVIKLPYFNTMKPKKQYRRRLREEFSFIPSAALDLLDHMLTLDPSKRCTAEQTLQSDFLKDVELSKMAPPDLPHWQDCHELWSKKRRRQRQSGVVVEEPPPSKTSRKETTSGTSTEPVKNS
CDK12/CycK, sequence (O75909 1-300 partner limits assumed): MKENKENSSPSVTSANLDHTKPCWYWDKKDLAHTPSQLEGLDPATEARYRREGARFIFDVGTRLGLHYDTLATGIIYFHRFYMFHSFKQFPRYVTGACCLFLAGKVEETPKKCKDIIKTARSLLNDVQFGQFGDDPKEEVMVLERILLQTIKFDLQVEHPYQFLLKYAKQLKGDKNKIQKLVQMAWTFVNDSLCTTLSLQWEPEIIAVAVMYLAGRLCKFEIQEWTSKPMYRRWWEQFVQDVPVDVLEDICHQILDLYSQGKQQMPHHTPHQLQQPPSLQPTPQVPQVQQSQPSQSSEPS
Outline: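 His-tagged human CDK12/CycK (~0.75 nM) pre-incubated 15 min with compound, then 60 min at 22 °C with 2 mM ATP and 1 µM biotinylated peptide (HEPES pH 7.5, 20 mM MgCl2). EDTA stop; phospho-Ser62 antibody/Eu anti-rabbit and streptavidin-XL665 TR-FRET, 665/620 nm ratio normalised to give IC50.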

[3] = system: BRCA1 mRNA expression in CAL-120 cells; assay: qRT-PCR assay: BRCA1 mRNA expression in CAL-120; format: cell-based; conditions: Homo sapiens; Inhibition of BRCA1 mRNA expression in CAL-120 cells; median; read-out: RTqPCR-CAL-120, IC50, BRCA1 (median)
Description: 3. qRT-PCR Assay: BRCA, ATR, MCL1 in MDA-MB-231, CAL-120
Tissue cultured human MDA-MB-231 human breast cancer cells were plated in 500 microL per well at 200,000 cells/well in a 24 well microtiter plate. After 24 h, the cells were exposed continuously for 24 h to test substances (substances were added with Tecan HP 0300 Dispenser). RNA was prepared using Qiagen RNeasy MiniKit (#74106), RNA was quantified using a NanoDrop Equipment, and 600 nano gamms of RNA was coverted to cDNA using a SuperScript VILO kit (Thermofisher #11755050) followed by qPCR amplification. BRCA1 and ATR gene expression was measured by RT-qPCR and normalised to GAPDH housekeeping gene expression. qPCR primer sets have been purchased from Thermo Fisher Scientific/Applied Biosystems: BRCA1, #Hs 01556193; ATR, #Hs 00992123; GAPDH, #Hs 03929097.

T1 sequence (Q9NYV4 whole entry): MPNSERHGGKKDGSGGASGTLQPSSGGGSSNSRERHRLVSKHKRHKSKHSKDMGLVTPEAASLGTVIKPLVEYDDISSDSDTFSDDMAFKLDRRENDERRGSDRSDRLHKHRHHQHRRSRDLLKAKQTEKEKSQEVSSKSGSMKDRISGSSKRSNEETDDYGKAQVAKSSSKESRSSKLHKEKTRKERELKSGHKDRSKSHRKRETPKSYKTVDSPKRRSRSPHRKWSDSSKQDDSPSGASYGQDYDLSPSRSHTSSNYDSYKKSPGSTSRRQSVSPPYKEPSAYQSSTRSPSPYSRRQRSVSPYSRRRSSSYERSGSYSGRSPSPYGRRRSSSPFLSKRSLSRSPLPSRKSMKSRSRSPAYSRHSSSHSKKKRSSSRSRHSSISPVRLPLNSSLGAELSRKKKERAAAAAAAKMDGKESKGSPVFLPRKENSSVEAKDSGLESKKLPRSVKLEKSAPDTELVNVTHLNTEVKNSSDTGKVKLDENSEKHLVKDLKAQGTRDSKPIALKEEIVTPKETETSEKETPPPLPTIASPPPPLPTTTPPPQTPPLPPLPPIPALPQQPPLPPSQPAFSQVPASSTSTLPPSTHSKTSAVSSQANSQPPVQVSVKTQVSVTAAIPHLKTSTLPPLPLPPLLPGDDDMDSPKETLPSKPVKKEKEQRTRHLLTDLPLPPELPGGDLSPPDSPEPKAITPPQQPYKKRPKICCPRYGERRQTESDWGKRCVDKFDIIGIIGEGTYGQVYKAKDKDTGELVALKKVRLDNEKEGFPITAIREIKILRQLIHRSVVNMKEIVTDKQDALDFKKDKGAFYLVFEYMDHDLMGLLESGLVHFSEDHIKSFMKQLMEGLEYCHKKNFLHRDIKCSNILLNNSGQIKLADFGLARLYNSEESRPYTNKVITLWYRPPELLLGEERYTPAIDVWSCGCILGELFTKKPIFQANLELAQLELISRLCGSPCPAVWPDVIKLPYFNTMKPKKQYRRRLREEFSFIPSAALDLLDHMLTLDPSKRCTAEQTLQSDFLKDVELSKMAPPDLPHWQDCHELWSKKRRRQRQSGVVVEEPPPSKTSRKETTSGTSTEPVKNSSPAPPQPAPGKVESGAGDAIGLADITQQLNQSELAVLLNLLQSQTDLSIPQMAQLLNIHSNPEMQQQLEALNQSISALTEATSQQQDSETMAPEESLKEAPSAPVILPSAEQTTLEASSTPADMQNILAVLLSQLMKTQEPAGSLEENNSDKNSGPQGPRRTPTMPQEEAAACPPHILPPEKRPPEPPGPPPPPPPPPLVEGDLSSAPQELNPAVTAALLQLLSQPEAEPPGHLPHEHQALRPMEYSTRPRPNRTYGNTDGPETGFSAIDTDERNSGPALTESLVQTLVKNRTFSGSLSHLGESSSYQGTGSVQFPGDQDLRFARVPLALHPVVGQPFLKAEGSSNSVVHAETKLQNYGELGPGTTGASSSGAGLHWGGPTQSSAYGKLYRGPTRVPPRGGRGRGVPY
T1 sequence (O75909 whole entry partner): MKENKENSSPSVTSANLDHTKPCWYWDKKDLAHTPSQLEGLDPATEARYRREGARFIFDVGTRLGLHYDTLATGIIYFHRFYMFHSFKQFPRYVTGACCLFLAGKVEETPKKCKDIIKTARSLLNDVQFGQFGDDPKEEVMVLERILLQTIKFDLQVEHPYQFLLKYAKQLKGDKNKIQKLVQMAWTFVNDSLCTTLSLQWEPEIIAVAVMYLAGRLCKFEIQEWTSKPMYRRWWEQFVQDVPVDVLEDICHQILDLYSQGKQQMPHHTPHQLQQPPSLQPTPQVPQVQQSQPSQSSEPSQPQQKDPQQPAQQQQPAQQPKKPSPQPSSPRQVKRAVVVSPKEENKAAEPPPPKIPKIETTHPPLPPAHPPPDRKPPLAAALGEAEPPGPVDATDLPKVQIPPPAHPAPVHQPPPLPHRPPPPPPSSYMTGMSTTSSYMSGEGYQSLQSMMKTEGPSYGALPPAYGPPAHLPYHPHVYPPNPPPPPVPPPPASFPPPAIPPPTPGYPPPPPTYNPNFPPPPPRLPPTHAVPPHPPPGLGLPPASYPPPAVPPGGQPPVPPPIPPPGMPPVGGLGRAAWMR

Structure (SMILES) | DC50 [1] [nM] | IC50 [2] [µM] | IC50 [3] [nM]
Brc1cnn2c(NCc3ncc(-c4ccccc4)[nH]3)nc(N3CCOCC3)nc12 [Example 23, 8-bromo-2-(morpholin-4-yl)-N-[(5-phenyl-1H-imidazol-2-yl)methyl]pyrazolo[1,5-a][1,3,5]triazin-4-amine] | < 1 | 1.56 | –
CC1CN(C)CCN1c1nc(NCc2nc3ccccc3[nH]2)n2ncc(Br)c2n1 (single isomer, unassigned; enantiomer 1) [Example 260, N-(1H-benzimidazol-2-ylmethyl)-8-bromo-2-[(2R or S)-2,4-dimethylpiperazin-1-yl]pyrazolo[1,5-a][1,3,5]triazin-4-amine (Enantiomer 1)] | < 1 | 12.2 | –
Brc1cnn2c(NCc3nc4c([nH]3)CCCC4)nc(N3CCOCC3)nc12 [Example 21, 8-bromo-2-(morpholin-4-yl)-N-[(4,5,6,7-tetrahydro-1H-benzimidazol-2-yl)methyl]pyrazolo[1,5-a][1,3,5]triazin-4-amine] | > 100 | 9.64 | 211
Cc1ccnc2[nH]c(CNc3nc(N4CCOCC4)nc4c(Br)cnn34)nc12 [Example 20, 8-bromo-N-[(7-methyl-3H-imidazo[4,5-b]pyridin-2-yl)methyl]-2-(morpholin-4-yl)pyrazolo[1,5-a][1,3,5]triazin-4-amine] | 2.6 | 1.75 | 17.7
Brc1cnn2c(NCc3nc4ccncc4[nH]3)nc(N3CCOCC3)nc12 [Example 22, 8-bromo-N-[(3H-imidazo[4,5-c]pyridin-2-yl)methyl]-2-(morpholin-4-yl)pyrazolo[1,5-a][1,3,5]triazin-4-amine] | 118 | 4 | –
Brc1cnn2c(NCc3nnc(-c4ccccc4)[nH]3)nc(N3CCOCC3)nc12 [Example 24, 8-bromo-2-(morpholin-4-yl)-N-[(5-phenyl-4H-1,2,4-triazol-3-yl)methyl]pyrazolo[1,5-a][1,3,5]triazin-4-amine] | 9.33 | 4.39 | 34.5
Fc1ccc2[nH]c(CNc3nc(N4CCOCC4)nc4c(CC(F)(F)F)cnn34)nc2c1 [Example 308, N-[(5-fluoro-1H-benzimidazol-2-yl)methyl]-2-(morpholin-4-yl)-8-(2,2,2-trifluoroethyl)pyrazolo[1,5-a][1,3,5]triazin-4-amine] | – | 6.4 | –
CN(CC(C)(C)O)c1nc(NCc2nc3c(F)cccc3[nH]2)n2ncc(C3CC3)c2n1 [Example 295, 1-[(8-cyclopropyl-4-{[(4-fluoro-1H-benzimidazol-2-yl)methyl]amino}pyrazolo[1,5-a][1,3,5]triazin-2-yl)(methyl)amino]-2-methylpropan-2-ol] | – | 0.829 | –
N[C@H]1[C@@H]2C[C@H]1CN(c1nc(NCc3nc4ccccc4[nH]3)n3ncc(Br)c3n1)C2 [Example 288, 2-[(1R,5S,6r)-6-amino-3-azabicyclo[3.1.1]heptan-3-yl]-N-[(1H-benzimidazol-2-yl)methyl]-8-bromopyrazolo[1,5-a][1,3,5]triazin-4-amine] | – | 3.38 | –
Brc1cnn2c(NCc3nc4cccnc4[nH]3)nc(N3CCNCC3)nc12.O=CO [Example 19, 8-bromo-N-[(3H-imidazo[4,5-b]pyridin-2-yl)methyl]-2-(piperazin-1-yl)pyrazolo[1,5-a][1,3,5]triazin-4-amine formic acid salt] | – | 11.5 | –
c1ccc2[nH]c(CNc3nc(N4C[C@@H]5C[C@H]4CO5)nc4c(C5CC5)cnn34)nc2c1 [Example 254, N-[(1H-benzimidazol-2-yl)methyl]-8-cyclopropyl-2-[(1S,4S)-2-oxa-5-azabicyclo[2.2.1]heptan-5-yl]pyrazolo[1,5-a][1,3,5]triazin-4-amine] | – | > 20 | –
CN1CCN(c2nc(NCc3nc4ccccc4[nH]3)n3ncc(C4CC4)c3n2)CC1 [Example 246, N-[(1H-benzimidazol-2-yl)methyl]-8-cyclopropyl-2-(4-methylpiperazin-1-yl)pyrazolo[1,5-a][1,3,5]triazin-4-amine] | – | > 12.9 | –
CN1CCN(c2nc(NCc3nc4ccccc4[nH]3)n3ncc(Br)c3n2)C(CO)C1 (single isomer, unassigned) [Example 280, [(2R or S)-1-(4-{[(1H-benzimidazol-2-yl)methyl]amino}-8-bromopyrazolo[1,5-a][1,3,5]triazin-2-yl)-4-methylpiperazin-2-yl]methanol] | – | 14.5 | –
Fc1ccc2[nH]c(CNc3nc(N4CCOCC4)nc4c(Br)cnn34)nc2c1F [Example 25, 8-bromo-N-[(4,5-difluoro-1H-benzimidazol-2-yl)methyl]-2-(morpholin-4-yl)pyrazolo[1,5-a][1,3,5]triazin-4-amine] | < 1 | 0.731 | –
C[C@@]1(O)CCN(c2nc(NCc3nc4ccccc4[nH]3)n3ncc(Br)c3n2)C1 (single isomer, unassigned) [Example 281, (3R or S)-1-(4-{[(1H-benzimidazol-2-yl)methyl]amino}-8-bromopyrazolo[1,5-a][1,3,5]triazin-2-yl)-3-methylpyrrolidin-3-ol] | – | > 16.9 | –
FC1(F)CC1c1cnn2c(NCc3nc4ccccc4[nH]3)nc(N3CCOCC3)nc12 (centres unmarked) [Example 279, N-[(1H-benzimidazol-2-yl)methyl]-8-(2,2-difluorocyclopropyl)-2-(morpholin-4-yl)pyrazolo[1,5-a][1,3,5]triazin-4-amine] | – | 14 | –
CN1CCN(c2nc(NCc3nc4cc(F)c(Cl)cc4[nH]3)n3ncc(C4CC4)c3n2)CC1 [Example 309, N-[(6-chloro-5-fluoro-1H-benzimidazol-2-yl)methyl]-8-cyclopropyl-2-(4-methylpiperazin-1-yl)pyrazolo[1,5-a][1,3,5]triazin-4-amine] | – | > 20 | –
CN1CCN(c2nc(NCc3nc4cc(F)c(F)cc4[nH]3)n3ncc(C4CC4)c3n2)CC1 [Example 311, 8-cyclopropyl-N-[(5,6-difluoro-1H-benzimidazol-2-yl)methyl]-2-(4-methylpiperazin-1-yl)pyrazolo[1,5-a][1,3,5]triazin-4-amine] | – | > 20 | –
FC(F)(F)Cc1cnn2c(NCc3nc4cc(Cl)c(Cl)cc4[nH]3)nc(N3CCOCC3)nc12 [Example 302, N-[(5,6-dichloro-1H-benzimidazol-2-yl)methyl]-2-(morpholin-4-yl)-8-(2,2,2-trifluoroethyl)pyrazolo[1,5-a][1,3,5]triazin-4-amine] | – | 5.96 | –

— patent US20230117034A1, “PYRAZOLOTRIAZINES” (Bayer Aktiengesellschaft, priority 2019, published 2023)
